Test results from patent US8536202B2, “Triazole-substituted anthranilamides as pesticides” (Bayer Cropscience AG, priority 2010, dated 2013).
Like-named read-outs stand apart in the source and are kept apart here.

Legend:
Boophilus microplus = Boophilus microplus test (BOOPMI injection); type: in vivo; settings: Rhipicephalus microplus, 168 h, 20 μg/animal, after 7 days, read-out: activity in % (no fertile eggs laid)
Description: (§1) Solvent: dimethyl sulphoxide
An appropriate preparation of active compound is prepared by mixing 10 mg of active compound with 0.5 ml of solvent and diluting the concentrate with solvent to the desired concentration. The solution of active compound is injected into the abdomen (Boophilus microplus), and the animals are transferred to dishes and kept in a climatized room. Activity is assessed by deposition of fertile eggs.
After 7 days, the activity in % is assessed. Here, 100% means that none of the ticks has laid fertile eggs.

[1] = system: larvae of the mustard beetle (Phaedon cochleariae); assay: Phaedon test (PHAECO spray treatment); type: in vivo; settings: 168 h, read-out: activity in %
In short: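 Compound dissolved in acetone/dimethylformamide with alkylaryl polyglycol ether emulsifier, then diluted with emulsifier-containing water to test concentration for spray treatment of Phaedon cochleariae larvae. Activity scored after 7 days as % larvae killed (100% = all dead, 0% = none).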

[2] = system: green peach aphid (Myzus persicae); assay: Myzus test (MYZUPE spray treatment), Use Example 4; type: in vivo; settings: 144 h; for pest or weed control at 100 g/ha: read-out: activity in %
In short: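 Compound was formulated in acetone/dimethylformamide with alkylaryl polyglycol ether emulsifier and diluted in emulsifier-containing water. It was sprayed onto Chinese cabbage leaf discs infested with all stages of Myzus persicae. Mortality (%) was scored after 6 days, where 100% means all aphids killed.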

[3] = system: caterpillars of the armyworm (Spodoptera frugiperda); assay: Spodoptera frugiperda test (SPODFR spray treatment); type: in vivo; settings: 168 h, read-out: activity in %
In short: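 Maize leaf discs sprayed with compound diluted in emulsifier-containing water (acetone/DMF solvent, alkylaryl polyglycol ether emulsifier), dried, then infested with armyworm caterpillars. Kill scored after 7 days as % mortality, 100% = all caterpillars dead, 0% = none.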

Lucilia cuprina larvae = assay: Lucilia cuprina test (LUCICU); type: in vivo; settings: 48 h, read-out: kill in %
Description: as §1
(§2) An appropriate preparation of active compound is prepared by mixing 10 mg of active compound with 0.5 ml of dimethyl sulphoxide and diluting the concentrate with water to the desired concentration.
Vessels containing horse meat treated with the preparation of active compound at the desired concentration are populated with approximately 20 Lucilia cuprina larvae.
After 2 days, the kill in % is ascertained. Here, 100% means that all of the larvae have been killed; 0% means that no larvae have been killed.

[4] = log P determination by HPLC on reversed-phase columns (EEC Directive 79/831 Annex V.A8); type: physicochemical; settings: pH 2.7
In short: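 log P from reversed-phase LC-MS retention at pH 2.7, 0.1% formic acid water/acetonitrile gradient 10–95% acetonitrile. Calibrated against C3–C16 unbranched alkan-2-ones, interpolating linearly between adjacent alkanones.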

adult Musca domestica = assay: Musca domestica test (MUSCDO); type: in vivo; settings: 48 h, 100 ppm, after 2 days, read-out: kill in %
Description: as §1
as §2, with “concentration. Vessels containing a sponge treated with the preparation of active compound at the desired concentration are populated with adult Musca domestica.” for “concentration.”
After 2 days, the kill in % is ascertained. Here, 100% means that all of the flies have been killed; 0% means that no flies have been killed.

[5] = reversed-phase C18 HPLC column, HPLC on reversed-phase columns (C 18), EEC Directive 79/831 Annex V.A8, read-out: logP
[6] = HPLC on reversed-phase columns (C 18), EEC Directive 79/831 Annex V.A8, read-out: logP

SMILES	pest or weed control at 0.02 mg (Boophilus microplus) [%]	pest or weed control at 100 g/ha ([1]; 100 g/ha, after 7 days) [%]	pest or weed control at 100 g/ha ([2]; 100 g/ha, after 6 days) [%]	pest or weed control at 100 g/ha ([3]; 100 g/ha, after 7 days) [%]	pest or weed control at 100 ppm (Lucilia cuprina larvae) [%]	chromatographic logP [4]	also measured
Cc1cc(C#N)cc(C(=O)NC(C)(C)C)c1NC(=O)c1cc(Cn2cc(C(F)(F)F)nn2)nn1-c1ncccc1Br [Example 7]	100	100	100	100			pest or weed control at 100 ppm (Lucilia cuprina larvae; 100 ppm, after 2 days): 100%; chromatographic logP [4, 5]: 3.44
CNC(=O)c1cc(Cl)cc(C)c1NC(=O)c1cc(Cn2nnc3cc(C(F)(F)F)ccc32)nn1-c1ncccc1Cl [Example 70]	100	100	100	100	100	3.13	
CNC(=O)c1cc(Cl)cc(C)c1NC(=O)c1cc(Cn2ncc(C(F)(F)F)n2)nn1-c1ncccc1Cl [Example 135]	100	100	90	100	100	2.99	
Cc1cc(Cl)cc(C(=O)NC(C)C2CC2)c1NC(=O)c1cc(Cn2ncc(C(F)(F)F)n2)nn1-c1ncccc1Cl (centres unmarked) [Example 136]	100	100		100	100	3.8	
CC(NC(=O)c1cc(Cl)cc(Cl)c1NC(=O)c1cc(Cn2ncc(C(F)(F)F)n2)nn1-c1ncccc1Cl)C1CC1 (centres unmarked) [Example 147]	100	100		100	100	3.73	
CC(C)(C)NC(=O)c1cc(Cl)cc(Cl)c1NC(=O)c1cc(Cn2ncc(C(F)(F)F)n2)nn1-c1ncccc1Cl [Example 151]	100	100	100	100	100	3.8	
CSC[C@H](C)NC(=O)c1cc(Cl)cc(Cl)c1NC(=O)c1cc(Cn2ncc(C(F)(F)F)n2)nn1-c1ncccc1Cl [Example 155]	100	100	100	100	100	3.64	
Cc1cc(I)cc(C(=O)NC(C)(C)C)c1NC(=O)c1cc(Cn2ncc(C(F)(F)F)n2)nn1-c1ncccc1Cl [Example 162]	100	100		100	100	4.11	
Cc1cc(Br)cc(C(=O)NC2CC2)c1NC(=O)c1cc(Cn2ncc(C(F)(F)F)n2)nn1-c1ncccc1Cl [Example 174]	100	100	100	100	100	3.28	
Cc1cc(Br)cc(C(=O)NC(C)C)c1NC(=O)c1cc(Cn2ncc(C(F)(F)F)n2)nn1-c1ncccc1Cl [Example 175]	100	100		100	100	3.55	
Cc1cc(C#N)cc(C(=O)NC(C)C2CC2)c1NC(=O)c1cc(Cn2cc(C(F)(C(F)(F)F)C(F)(F)F)nn2)nn1-c1ncccc1Cl (centres unmarked) [Example 218]	100	100		100			pest or weed control at 100 ppm (Lucilia cuprina larvae; 100 ppm, after 2 days): 100%; pest or weed control at 100 ppm (adult Musca domestica): 85%; chromatographic logP [4, 5]: 3.73
CNC(=O)c1cc(C#N)cc(C)c1NC(=O)c1cc(Cn2ncc(C(F)(F)C(F)(F)F)n2)nn1-c1ncccc1Cl [Example 365]		100	100	100		3.04	
CNC(=O)c1cc(Cl)cc(C)c1NC(=O)c1cc(Cn2ncc(C(F)(F)C(F)(F)C(F)(F)F)n2)nn1-c1ncccc1Cl [Example 368]							pest or weed control at 100 g/ha [1]: 100%; pest or weed control at 100 g/ha [2]: 100%; pest or weed control at 100 g/ha [3]: 100%; chromatographic logP [4, 6]: 3.76
CCNC(=O)c1cc(C#N)cc(C)c1NC(=O)c1cc(Cn2ncc(C(F)(F)C(F)(F)C(F)(F)F)n2)nn1-c1ncccc1Cl [Example 372]							pest or weed control at 100 g/ha [1]: 100%; pest or weed control at 100 g/ha [2]: 100%; pest or weed control at 100 g/ha [3]: 100%; chromatographic logP [4, 6]: 3.65
CSC[C@H](C)NC(=O)c1cc(I)cc(C)c1NC(=O)c1cc(Cn2ncc(C(F)(F)C(F)(F)C(F)(F)F)n2)nn1-c1ncccc1Cl [Example 373]							pest or weed control at 100 g/ha [1]: 100%; pest or weed control at 100 g/ha [2]: 100%; pest or weed control at 100 g/ha [3]: 100%; chromatographic logP [4, 6]: 4.65
Cc1cc(I)cc(C(N)=O)c1NC(=O)c1cc(Cn2ncc(C(F)(F)C(F)(F)C(F)(F)F)n2)nn1-c1ncccc1Cl [Example 381]							pest or weed control at 100 g/ha [1]: 100%; pest or weed control at 100 g/ha [2]: 100%; pest or weed control at 100 g/ha [3]: 100%; chromatographic logP [4, 6]: 3.7
CSC[C@H](C)NC(=O)c1cc(Cl)cc(C)c1NC(=O)c1cc(Cn2ncc(C(F)(F)C(F)(F)C(F)(F)F)n2)nn1-c1ncccc1Cl [Example 383]							pest or weed control at 100 g/ha [1]: 100%; pest or weed control at 100 g/ha [2]: 80%; pest or weed control at 100 g/ha [3]: 100%; chromatographic logP [4, 6]: 4.41
Cc1cc(Cl)cc(C(N)=O)c1NC(=O)c1cc(Cn2ncc(C(F)(F)C(F)(F)C(F)(F)F)n2)nn1-c1ncccc1Cl [Example 384]							pest or weed control at 100 g/ha [1]: 100%; pest or weed control at 100 g/ha [2]: 100%; pest or weed control at 100 g/ha [3]: 100%; chromatographic logP [4, 6]: 3.5
CNC(=O)c1cc(C#N)cc(C)c1NC(=O)c1cc(Cn2ncc(C(F)(F)C(F)(F)C(F)(F)F)n2)nn1-c1ncccc1Cl [Example 387]							pest or weed control at 100 g/ha [1]: 100%; pest or weed control at 100 g/ha [2]: 100%; pest or weed control at 100 g/ha [3]: 100%; chromatographic logP [4, 6]: 3.39
Cc1cc(Cl)cc(C(=O)NC(C)(C)C)c1NC(=O)c1cc(Cn2nc(C(F)(F)F)c(C(F)(F)F)n2)nn1-c1ncccc1Cl [Example 393]		100	90	100		4.59	
Cc1cc(C#N)cc(C(N)=O)c1NC(=O)c1cc(Cn2nc(C(F)(F)F)c(C(F)(F)F)n2)nn1-c1ncccc1Cl [Example 396]		100	90	100		3.21	
CSC[C@H](C)NC(=O)c1cc(C#N)cc(C)c1NC(=O)c1cc(Cn2nc(C(F)(F)F)c(C(F)(F)F)n2)nn1-c1ncccc1Cl [Example 400]		100		100			pest or weed control at 500 g/ha ([2]; 500 g/ha, after 6 days): 100%; chromatographic logP [4, 5]: 4.05
Cc1cc(I)cc(C(N)=O)c1NC(=O)c1cc(Cn2nc(C(F)(F)F)c(C(F)(F)F)n2)nn1-c1ncccc1Cl [Example 402]		100	80	100		3.67	
CSC[C@H](C)NC(=O)c1cc(Cl)cc(C)c1NC(=O)c1cc(Cn2nc(C(F)(F)F)c(C(F)(F)F)n2)nn1-c1ncccc1Cl [Example 408]		100	90	100		4.4	
Cc1cc(C#N)cc(C(=O)NC(C)(C)C)c1NC(=O)c1cc(Cn2nc(C(F)(F)F)c(C(F)(F)F)n2)nn1-c1ncccc1Cl [Example 412]		100	80	100		4.16	
CNC(=O)c1cc(C#N)cc(C)c1NC(=O)c1cc(Cn2nc(C(F)(F)F)c(C(F)(F)F)n2)nn1-c1ncccc1Cl [Example 414]		100	100	100		3.43	
